Experiments:
Experiment in all cases: biochemical
Set-up in all cases: Thermo Fisher SelectScreen kinase panel: Z'-LYTE and Adapta activity, LanthaScreen binding
[1] = target: T1, ALK2 (Homo sapiens, UniProt Q04771)
T1 construct: gene ACVR1
In short: (§1)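 GNE684 profiled at 10 µM across 221 kinases with Z'-LYTE and Adapta activity and LanthaScreen binding formats. Also screened at 10 µM against 468 kinases in KINOMEscan scanMAX binding assay.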

[2] = target: T2, ARK5 (Homo sapiens, UniProt O60285)
T2 construct: gene NUAK1
In short: as §1

[3] = target: BMPR1A (Homo sapiens, UniProt P36894)
Sequence of BMPR1A (P36894 whole entry): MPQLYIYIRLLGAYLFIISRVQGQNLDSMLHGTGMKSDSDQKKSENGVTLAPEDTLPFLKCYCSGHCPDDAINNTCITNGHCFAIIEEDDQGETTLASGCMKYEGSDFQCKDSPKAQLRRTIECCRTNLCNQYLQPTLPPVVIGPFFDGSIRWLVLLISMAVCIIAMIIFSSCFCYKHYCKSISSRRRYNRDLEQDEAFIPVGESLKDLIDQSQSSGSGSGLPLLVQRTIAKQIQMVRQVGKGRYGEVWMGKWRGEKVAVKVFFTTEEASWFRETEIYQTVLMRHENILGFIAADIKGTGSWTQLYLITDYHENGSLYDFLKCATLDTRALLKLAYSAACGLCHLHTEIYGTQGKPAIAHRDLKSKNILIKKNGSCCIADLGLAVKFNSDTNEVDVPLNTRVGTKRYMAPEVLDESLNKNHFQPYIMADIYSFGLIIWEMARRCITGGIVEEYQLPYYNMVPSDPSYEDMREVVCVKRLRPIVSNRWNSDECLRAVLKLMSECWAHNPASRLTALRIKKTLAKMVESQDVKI
In short: as §1

[4] = target: T3, CK2_alpha1 (Homo sapiens, UniProt P68400)
T3 construct: gene CSNK2A1
In short: as §1

[5] = target: CSK (Homo sapiens, UniProt P41240)
Sequence of CSK (P41240 whole entry): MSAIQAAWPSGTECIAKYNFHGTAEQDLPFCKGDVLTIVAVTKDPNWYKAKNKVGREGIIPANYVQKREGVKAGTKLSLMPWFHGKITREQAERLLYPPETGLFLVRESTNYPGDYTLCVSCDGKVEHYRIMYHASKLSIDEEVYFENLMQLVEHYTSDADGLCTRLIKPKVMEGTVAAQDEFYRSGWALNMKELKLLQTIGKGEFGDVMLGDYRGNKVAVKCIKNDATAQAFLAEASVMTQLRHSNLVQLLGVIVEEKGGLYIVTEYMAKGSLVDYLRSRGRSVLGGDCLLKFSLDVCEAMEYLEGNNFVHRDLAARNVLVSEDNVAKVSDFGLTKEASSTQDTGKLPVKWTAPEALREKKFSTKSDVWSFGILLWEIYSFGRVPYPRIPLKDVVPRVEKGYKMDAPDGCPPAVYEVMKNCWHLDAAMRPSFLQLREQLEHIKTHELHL
In short: as §1

[6] = target: T4, CaMKI_delta (Homo sapiens, UniProt Q8IU85)
T4 construct: gene CAMK1D
In short: as §1

[7] = target: T5, CamKIV (Homo sapiens, UniProt Q16566)
T5 construct: gene CAMK4
T5 sequence (Q16566 whole entry): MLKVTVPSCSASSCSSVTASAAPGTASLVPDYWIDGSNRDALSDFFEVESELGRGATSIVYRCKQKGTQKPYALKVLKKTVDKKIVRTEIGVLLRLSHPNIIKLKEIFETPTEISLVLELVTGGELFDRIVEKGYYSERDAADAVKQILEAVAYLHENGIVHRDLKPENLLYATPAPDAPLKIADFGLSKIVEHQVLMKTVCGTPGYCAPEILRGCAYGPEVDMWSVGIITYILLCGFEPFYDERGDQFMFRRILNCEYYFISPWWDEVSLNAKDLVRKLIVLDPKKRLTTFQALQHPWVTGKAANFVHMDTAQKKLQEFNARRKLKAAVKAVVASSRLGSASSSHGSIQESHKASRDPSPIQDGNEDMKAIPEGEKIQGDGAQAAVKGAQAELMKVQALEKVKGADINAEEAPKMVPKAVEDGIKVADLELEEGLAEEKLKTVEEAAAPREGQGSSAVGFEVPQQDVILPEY
In short: as §1

[8] = target: DAPK1 (Homo sapiens, UniProt P53355)
In short: as §1

[9] = target: FES (Homo sapiens, UniProt P07332)
In short: as §1

[10] = target: T6, GSK3_beta (Homo sapiens, UniProt P49841)
T6 construct: gene GSK3B
In short: as §1

[11] = target: HIPK4 (Homo sapiens, UniProt Q8NE63)
In short: as §1

[12] = target: MARK3 (Homo sapiens, UniProt P27448)
Sequence of MARK3 (P27448 whole entry): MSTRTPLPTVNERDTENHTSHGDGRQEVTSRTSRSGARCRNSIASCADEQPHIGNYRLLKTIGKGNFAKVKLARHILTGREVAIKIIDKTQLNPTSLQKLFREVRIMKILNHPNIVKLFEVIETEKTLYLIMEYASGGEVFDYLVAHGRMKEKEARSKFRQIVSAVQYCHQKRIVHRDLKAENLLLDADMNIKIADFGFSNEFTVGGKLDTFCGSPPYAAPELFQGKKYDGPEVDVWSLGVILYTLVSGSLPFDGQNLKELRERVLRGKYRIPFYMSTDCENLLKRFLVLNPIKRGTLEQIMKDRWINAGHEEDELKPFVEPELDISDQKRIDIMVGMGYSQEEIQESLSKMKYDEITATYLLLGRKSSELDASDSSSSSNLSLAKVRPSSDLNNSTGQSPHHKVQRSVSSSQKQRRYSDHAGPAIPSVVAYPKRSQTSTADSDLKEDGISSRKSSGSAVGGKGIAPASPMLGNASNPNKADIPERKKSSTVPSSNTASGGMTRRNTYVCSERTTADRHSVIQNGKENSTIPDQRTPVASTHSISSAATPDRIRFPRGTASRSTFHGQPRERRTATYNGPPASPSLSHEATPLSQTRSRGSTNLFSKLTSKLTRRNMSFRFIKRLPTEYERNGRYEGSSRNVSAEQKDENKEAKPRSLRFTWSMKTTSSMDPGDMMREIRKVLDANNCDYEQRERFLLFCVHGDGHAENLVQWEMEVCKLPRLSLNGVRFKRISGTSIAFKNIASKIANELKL
In short: as §1

[13] = target: T7, MST2 (Homo sapiens, UniProt Q13188)
T7 construct: gene STK3
T7 sequence (Q13188 whole entry): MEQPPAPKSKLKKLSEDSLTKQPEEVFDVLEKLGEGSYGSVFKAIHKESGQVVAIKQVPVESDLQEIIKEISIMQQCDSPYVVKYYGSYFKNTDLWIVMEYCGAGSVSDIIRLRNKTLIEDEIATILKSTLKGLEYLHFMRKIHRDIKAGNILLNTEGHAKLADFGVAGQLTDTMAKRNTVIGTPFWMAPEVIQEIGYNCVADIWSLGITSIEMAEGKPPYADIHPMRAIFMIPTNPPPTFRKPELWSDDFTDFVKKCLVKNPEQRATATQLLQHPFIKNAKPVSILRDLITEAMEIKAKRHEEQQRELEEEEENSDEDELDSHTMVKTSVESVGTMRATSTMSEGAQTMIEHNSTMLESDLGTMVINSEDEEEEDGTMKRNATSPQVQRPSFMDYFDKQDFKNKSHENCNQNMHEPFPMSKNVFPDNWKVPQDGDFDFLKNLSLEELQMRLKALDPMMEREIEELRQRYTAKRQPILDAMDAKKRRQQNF
In short: as §1

[14] = target: NEK1 (Homo sapiens, UniProt Q96PY6)
In short: as §1

[15] = target: PAK1 (Homo sapiens, UniProt Q13153)
Sequence of PAK1 (Q13153 whole entry): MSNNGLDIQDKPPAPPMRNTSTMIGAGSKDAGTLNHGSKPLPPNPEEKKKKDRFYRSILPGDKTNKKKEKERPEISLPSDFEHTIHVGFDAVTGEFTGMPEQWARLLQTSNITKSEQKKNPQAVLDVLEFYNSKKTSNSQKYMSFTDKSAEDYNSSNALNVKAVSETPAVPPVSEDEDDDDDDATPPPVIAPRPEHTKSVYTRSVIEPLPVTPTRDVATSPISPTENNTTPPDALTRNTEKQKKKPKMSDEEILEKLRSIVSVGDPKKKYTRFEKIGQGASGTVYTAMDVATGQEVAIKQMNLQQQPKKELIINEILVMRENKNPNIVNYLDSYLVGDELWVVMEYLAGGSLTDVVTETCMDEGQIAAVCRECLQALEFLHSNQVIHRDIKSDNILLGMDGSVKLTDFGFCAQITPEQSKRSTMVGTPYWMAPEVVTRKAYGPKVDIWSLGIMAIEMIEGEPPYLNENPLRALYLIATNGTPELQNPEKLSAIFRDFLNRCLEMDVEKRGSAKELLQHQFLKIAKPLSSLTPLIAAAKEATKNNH
In short: as §1

[16] = target: T8, PKC_beta1 (Homo sapiens, UniProt P05771)
T8 construct: gene PRKCB; isoform beta I
In short: as §1

[17] = target: PLK1 (Homo sapiens, UniProt P53350)
In short: as §1

[18] = target: T9, RSK2 (Homo sapiens, UniProt P51812)
T9 construct: gene RPS6KA3
T9 sequence (P51812 whole entry): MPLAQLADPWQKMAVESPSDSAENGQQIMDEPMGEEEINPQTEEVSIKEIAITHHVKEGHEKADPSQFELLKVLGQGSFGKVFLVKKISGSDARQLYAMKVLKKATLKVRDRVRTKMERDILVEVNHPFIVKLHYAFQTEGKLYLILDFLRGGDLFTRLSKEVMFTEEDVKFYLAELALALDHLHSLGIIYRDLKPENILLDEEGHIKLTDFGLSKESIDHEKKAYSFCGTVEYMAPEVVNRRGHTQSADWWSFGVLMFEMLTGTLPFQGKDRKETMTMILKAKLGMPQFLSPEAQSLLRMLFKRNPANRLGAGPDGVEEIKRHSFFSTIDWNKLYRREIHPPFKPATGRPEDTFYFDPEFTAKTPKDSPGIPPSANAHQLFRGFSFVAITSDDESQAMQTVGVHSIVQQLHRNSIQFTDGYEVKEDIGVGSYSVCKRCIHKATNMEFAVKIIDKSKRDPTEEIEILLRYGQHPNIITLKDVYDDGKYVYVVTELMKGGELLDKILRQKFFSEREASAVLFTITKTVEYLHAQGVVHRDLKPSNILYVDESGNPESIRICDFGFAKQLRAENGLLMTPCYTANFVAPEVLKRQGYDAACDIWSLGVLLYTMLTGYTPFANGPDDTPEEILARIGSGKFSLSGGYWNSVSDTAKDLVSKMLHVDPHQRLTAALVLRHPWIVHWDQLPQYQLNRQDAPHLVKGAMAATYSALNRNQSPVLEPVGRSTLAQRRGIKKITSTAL
In short: as §1

[19] = target: T10, Ros (Homo sapiens, UniProt P08922)
T10 construct: gene ROS1
In short: as §1

[20] = target: SGK1 (Homo sapiens, UniProt O00141)
In short: as §1

[21] = target: SPHK1 (Homo sapiens, UniProt Q9NYA1)
Sequence of SPHK1 (Q9NYA1 whole entry): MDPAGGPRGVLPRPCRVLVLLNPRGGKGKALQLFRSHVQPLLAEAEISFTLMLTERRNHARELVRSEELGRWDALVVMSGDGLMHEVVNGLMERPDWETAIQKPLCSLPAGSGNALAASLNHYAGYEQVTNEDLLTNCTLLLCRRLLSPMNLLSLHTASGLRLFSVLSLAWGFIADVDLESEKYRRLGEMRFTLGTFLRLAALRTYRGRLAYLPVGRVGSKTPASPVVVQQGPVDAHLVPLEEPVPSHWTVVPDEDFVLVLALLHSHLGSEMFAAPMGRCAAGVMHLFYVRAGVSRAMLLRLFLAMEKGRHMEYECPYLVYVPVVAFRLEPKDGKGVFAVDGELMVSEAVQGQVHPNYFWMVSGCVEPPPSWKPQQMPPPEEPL
In short: as §1

[22] = target: TEC (Homo sapiens, UniProt P42680)
In short: as §1

[23] = target: T11, TRKA (Homo sapiens, UniProt P04629)
T11 construct: gene NTRK1
In short: as §1

T1 sequence (Q04771 whole entry): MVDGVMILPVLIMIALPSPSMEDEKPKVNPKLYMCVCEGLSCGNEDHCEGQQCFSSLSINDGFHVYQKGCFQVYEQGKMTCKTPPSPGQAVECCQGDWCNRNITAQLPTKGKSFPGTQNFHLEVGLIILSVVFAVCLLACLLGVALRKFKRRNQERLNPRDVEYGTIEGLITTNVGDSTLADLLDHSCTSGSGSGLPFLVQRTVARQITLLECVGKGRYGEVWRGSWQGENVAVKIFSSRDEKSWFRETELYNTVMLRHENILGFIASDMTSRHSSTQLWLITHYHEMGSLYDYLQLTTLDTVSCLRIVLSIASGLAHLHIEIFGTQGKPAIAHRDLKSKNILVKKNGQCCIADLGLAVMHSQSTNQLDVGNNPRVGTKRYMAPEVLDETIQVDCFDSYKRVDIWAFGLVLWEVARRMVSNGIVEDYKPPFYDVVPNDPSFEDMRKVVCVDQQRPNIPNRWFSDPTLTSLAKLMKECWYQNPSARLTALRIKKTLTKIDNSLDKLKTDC

Question: Which results are given for `COc1cc2c(cn1)N(C)C(=O)[C@@H](NC(=O)c1nc3n(n1)[C@H](c1ccccc1)CC3)CC2` [GNE684, (S)-N-((S)-7-methoxy-1-methyl-2-oxo-2,3,4,5-tetrahydro-1H-pyrido[3,4-b]azepin-3-yl)-5-phenyl-6,7-dihydro-5H-pyrrolo[1,2-b][1,2,4]triazole-2-carboxamide]?
Answer: inhibition at 10 µM [1]: 2%; inhibition at 10 µM [2]: -6.5%; inhibition at 10 µM [3]: -4.5%; inhibition at 10 µM [4]: 3.5%; inhibition at 10 µM [5]: -1.5%; inhibition at 10 µM [6]: 7.5%; inhibition at 10 µM [7]: -1%; inhibition at 10 µM [8]: -11.5%; inhibition at 10 µM [9]: 3%; inhibition at 10 µM [10]: 5%; inhibition at 10 µM [11]: 11.5%; inhibition at 10 µM [12]: -2.5%; inhibition at 10 µM [13]: 5%; inhibition at 10 µM [14]: 7.5%; inhibition at 10 µM [15]: 2.5%; inhibition at 10 µM [16]: 3.5%; inhibition at 10 µM [17]: 4%; inhibition at 10 µM [18]: 4%; inhibition at 10 µM [19]: 3%; inhibition at 10 µM [20]: -1%; inhibition at 10 µM [21]: 4.5%; inhibition at 10 µM [22]: -1%; inhibition at 10 µM [23]: -3%

From paper PMC7206119, “RIP1 inhibition blocks inflammatory diseases but not tumor growth or metastases” (Cell Death and Differentiation, 2019)
